Experimental data from publication PMC9698340, “Discovery and SAR Study of Quinoxaline–Arylfuran Derivatives as a New Class of Antitumor Agents” (Pharmaceutics, 2022).

Experiments:
Format in all cases: cell-based
HeLa cells = experiment: CCK-8 antiproliferation assay, HeLa; conditions: Homo sapiens; 20 μM, 48 h, CCK-8, mean ± SD; read-out: Inhibition Rate (%) at 20 μM, HeLa
Protocol: (§1) Human lung carcinoma cell lines A549, human cervical cancer cell lines HeLa, human prostate cancer cell lines PC3, human colorectal carcinoma cell lines HCT116, and human liver cells L02 were purchased from the Chinese Academy of Sciences Shanghai Cell Bank (Shanghai, China). HeLa, A549, PC3, HCT116, and L02 cells were cultured in DMEM Dulbecco’s Modified Eagle Medium (DMEM; Gibco Inc., Gaithersburg, MD, USA). All cultures were provided with 10% fetal bovine serum (FBS; YHSM, Beijing, China), 100 IU/mL penicillin, and 100 μg/mL streptomycin, and cells were incubated at 37 °C in an atmosphere of 5% CO2.
(§2) Cell viability was determined using a CCK-8 kit (Apexbio, Houston, TX, USA). […] Subsequently, absorbance was assessed at 450 nm. Three duplicates were set in each group.
(§3) All synthesized quinoxalines compounds were tested for in vitro cytotoxicity against four cancer cell lines (HeLa, PC3, A549, and HCT116). The inhibitory effects of these compounds were evaluated using the CCK-8 assay after treatment with 20 μM of each compound. […] The species of phenyl substituents have a significant effect on the activity. […] By comparison, hydrophobic substitution at the phenyl ring gave derivatives with relatively low potency (QW7–8). In addition, large substituents on the phenyl ring exerted an unfavorable influence on the potency of the compounds (QW8 and QW16).

A549 cells = experiment: CCK-8 antiproliferation assay, A549; conditions: Homo sapiens, 20 μM, 48 h, CCK-8, mean ± SD, read-out: Inhibition Rate (%) at 20 μM, A549
Protocol: as §1, §2, §3

HCT116 cells = experiment: CCK-8 antiproliferation assay, HCT116; conditions: Homo sapiens, HCT-116; 20 μM, 48 h, CCK-8, mean ± SD; read-out: Inhibition Rate (%) at 20 μM, HCT116
Protocol: as §1, §2, §3

PC3 cells = experiment: CCK-8 antiproliferation assay, PC3; conditions: Homo sapiens, PC-3; 20 μM, 48 h, CCK-8, mean ± SD; read-out: Inhibition Rate (%) at 20 μM, PC3
Protocol: as §1, §2, §3

| SMILES | inhibition at 20 µM (HeLa cells) [%] | inhibition at 20 µM (A549 cells) [%] | inhibition at 20 µM (HCT116 cells) [%] | inhibition at 20 µM (PC3 cells) [%] |
| --- | --- | --- | --- | --- |
| COc1cc(-c2ccc(/C=N/NC(=O)c3ccc(F)cc3)o2)c(OC)cc1-c1cnc2ccccc2n1 [QW1, (E)-N’-((5-(2,5-dimethoxy-4-(quinoxalin-2-yl)phenyl)furan-2-yl)methylene)-4-fluorobenzohydrazide] | 5.14 ± 0.13 | 7.47 ± 0.52 | 15.33 ± 0.14 | 5.13 ± 0.59 |
| COc1cc(-c2ccc(/C=N/NC(=O)c3ccccc3)o2)c(OC)cc1-c1cnc2ccccc2n1 [QW2, (E)-N’-((5-(2,5-dimethoxy-4-(quinoxalin-2-yl)phenyl)furan-2-yl)methylene)benzohydrazide] | 8.64 ± 0.26 | 6.46 ± 0.43 | 17.8 ± 0.67 | 1.76 ± 0.23 |
| COc1cc(-c2ccc(/C=N/NC(=O)c3cccnc3)o2)c(OC)cc1-c1cnc2ccccc2n1 [QW3, (E)-N’-((5-(2,5-dimethoxy-4-(quinoxalin-2-yl)phenyl)furan-2-yl)methylene)nicotinohydrazide] | 38.81 ± 0.3 | 11.63 ± 0.03 | 33.8 ± 0.41 | 32.6 ± 0.65 |
| COc1cc(-c2ccc(/C=N/NC(=O)c3ccc(O)cc3)o2)c(OC)cc1-c1cnc2ccccc2n1 [QW4, (E)-N’-((5-(2,5-dimethoxy-4-(quinoxalin-2-yl)phenyl)furan-2-yl)methylene)-4-hydroxybenzohydrazide] | 44.29 ± 0.05 | 25.5 ± 0.62 | 30.7 ± 0.04 | 38.74 ± 0.2 |
| COc1cc(-c2ccc(/C=N/NC(=O)c3ccncc3)o2)c(OC)cc1-c1cnc2ccccc2n1 [QW5, (E)-N’-((5-(2,5-dimethoxy-4-(quinoxalin-2-yl)phenyl)furan-2-yl)methylene)isonicotinohydrazide] | 31.13 ± 0.23 | 18.52 ± 0.18 | 30.6 ± 0.51 | 26 ± 0.37 |
| COc1cc(-c2ccc(/C=N/NC(=O)c3ccccn3)o2)c(OC)cc1-c1cnc2ccccc2n1 [QW6, (E)-N’-((5-(2,5-dimethoxy-4-(quinoxalin-2-yl)phenyl)furan-2-yl)methylene)picolinohydrazide] | 0.53 ± 0.12 | 1.66 ± 0.61 | 16.5 ± 0.25 | 0.1 ± 0.13 |
| COc1cc(-c2ccc(/C=N/NC(=O)c3cccc(C)c3)o2)c(OC)cc1-c1cnc2ccccc2n1 [QW7, (E)-N’-((5-(2,5-dimethoxy-4-(quinoxalin-2-yl)phenyl)furan-2-yl)methylene)-3-methylbenzohydrazide] | 8.46 ± 0.42 | 4.31 ± 0.08 | 2.18 ± 0.38 | 4.73 ± 0.01 |
| COc1cc(-c2ccc(/C=N/NC(=O)c3ccc(-c4ccccc4)cc3)o2)c(OC)cc1-c1cnc2ccccc2n1 [QW8, (E)-N’-((5-(2,5-dimethoxy-4-(quinoxalin-2-yl)phenyl)furan-2-yl)methylene)-[1,1’-biphenyl]-4-carbohydrazide] | 3.46 ± 0.17 | 5.8 ± 0.02 | 20.92 ± 0.05 | 11.8 ± 0.56 |
| COc1cc(-c2ccc(/C=N/NC(=O)c3ccc(F)cc3)o2)c(OC)cc1-c1ccc2nccnc2c1 [QW9, (E)-N’-((5-(2,5-dimethoxy-4-(quinoxalin-6-yl)phenyl)furan-2-yl)methylene)-4-fluorobenzohydrazide] | 17.1 ± 0.41 | 1.16 ± 0.63 | 29.9 ± 0.57 | 3.98 ± 0.49 |
| COc1cc(-c2ccc(/C=N/NC(=O)c3ccccc3)o2)c(OC)cc1-c1ccc2nccnc2c1 [QW10, (E)-N’-((5-(2,5-dimethoxy-4-(quinoxalin-6-yl)phenyl)furan-2-yl)methylene)benzohydrazide] | 4.3 ± 0.45 | 8.82 ± 0.08 | 10.9 ± 0.46 | 8.09 ± 0.13 |
| COc1cc(-c2ccc(/C=N/NC(=O)c3cccnc3)o2)c(OC)cc1-c1ccc2nccnc2c1 [QW11, (E)-N’-((5-(2,5-dimethoxy-4-(quinoxalin-6-yl)phenyl)furan-2-yl)methylene)nicotinohydrazide] | 45.5 ± 0.61 | 17.27 ± 0.03 | 39.9 ± 0.68 | 29.35 ± 0.18 |
| COc1cc(-c2ccc(/C=N/NC(=O)c3ccncc3)o2)c(OC)cc1-c1ccc2nccnc2c1 [QW13, (E)-N’-((5-(2,5-dimethoxy-4-(quinoxalin-6-yl)phenyl)furan-2-yl)methylene)isonicotinohydrazide] | 37.71 ± 0.12 | 3.96 ± 0.59 | 23.2 ± 0.27 | 18.5 ± 0.3 |
| COc1cc(-c2ccc(/C=N/NC(=O)c3ccccn3)o2)c(OC)cc1-c1ccc2nccnc2c1 [QW14, (E)-N’-((5-(2,5-dimethoxy-4-(quinoxalin-6-yl)phenyl)furan-2-yl)methylene)picolinohydrazide] | 8.67 ± 0.24 | 5.46 ± 0.7 | 30.5 ± 0.55 | 12.9 ± 0.31 |
| COc1cc(-c2ccc(/C=N/NC(=O)c3cccc(C)c3)o2)c(OC)cc1-c1ccc2nccnc2c1 [QW15, (E)-N’-((5-(2,5-dimethoxy-4-(quinoxalin-6-yl)phenyl)furan-2-yl)methylene)-3-methylbenzohydrazide] | 14.26 ± 0.12 | 9.44 ± 0.39 | 18.8 ± 0.54 | 13.77 ± 0.12 |
| COc1cc(-c2ccc(/C=N/NC(=O)c3ccc(-c4ccccc4)cc3)o2)c(OC)cc1-c1ccc2nccnc2c1 [QW16, (E)-N’-((5-(2,5-dimethoxy-4-(quinoxalin-6-yl)phenyl)furan-2-yl)methylene)-[1,1’-biphenyl]-4-carbohydrazide] | 10.93 ± 0.04 | 4.12 ± 0.33 | 41.48 ± 0.05 | 9.37 ± 0.09 |
| COc1cc(-c2cc(OC)c3ccccc3c2OC)c(OC)cc1-c1ccc(/C=N/NC(=O)c2ccc(F)cc2)o1 [QW17, (E)-N’-((5-(4-(1,4-dimethoxynaphthalen-2-yl)-2,5-dimethoxyphenyl)furan-2-yl)methylene)-4-fluorobenzohydrazide] | 6.49 ± 0.17 | 0.44 ± 0.16 | 4.69 ± 0.5 | 11.7 ± 0.66 |
| COc1cc(-c2cc(OC)c3ccccc3c2OC)c(OC)cc1-c1ccc(/C=N/NC(=O)c2ccccc2)o1 [QW18, (E)-N’-((5-(4-(1,4-dimethoxynaphthalen-2-yl)-2,5-dimethoxyphenyl)furan-2-yl)methylene)benzohydrazide] | 4.3 ± 0.45 | 8.82 ± 0.08 | 10.9 ± 0.46 | 8.09 ± 0.13 |
| COc1cc(-c2cc(OC)c3ccccc3c2OC)c(OC)cc1-c1ccc(/C=N/NC(=O)c2cccnc2)o1 [QW19, (E)-N’-((5-(4-(1,4-dimethoxynaphthalen-2-yl)-2,5-dimethoxyphenyl)furan-2-yl)methylene)nicotinohydrazide] | 9.56 ± 0.65 | 0.15 ± 0.35 | 4.61 ± 0.66 | 8.37 ± 0.21 |
| COc1cc(-c2cc(OC)c3ccccc3c2OC)c(OC)cc1-c1ccc(/C=N/NC(=O)c2ccc(O)cc2)o1 [QW20, (E)-N’-((5-(4-(1,4-dimethoxynaphthalen-2-yl)-2,5-dimethoxyphenyl)furan-2-yl)methylene)-4-hydroxybenzohydrazide] | 22.5 ± 0.25 | 18.73 ± 0.1 | 48.5 ± 0.01 | 15.6 ± 0.19 |
| COc1cc(-c2cc(OC)c3ccccc3c2OC)c(OC)cc1-c1ccc(/C=N/NC(=O)c2ccncc2)o1 [QW21, (E)-N’-((5-(4-(1,4-dimethoxynaphthalen-2-yl)-2,5-dimethoxyphenyl)furan-2-yl)methylene)isonicotinohydrazide] | 0.36 ± 0.6 | 0.68 ± 0.36 | 4.46 ± 0.24 | 0.12 ± 0.2 |
| COc1cc(-c2cc(OC)c3ccccc3c2OC)c(OC)cc1-c1ccc(/C=N/NC(=O)c2ccccn2)o1 [QW22, (E)-N’-((5-(4-(1,4-dimethoxynaphthalen-2-yl)-2,5-dimethoxyphenyl)furan-2-yl)methylene)picolinohydrazide] | 5.47 ± 0.37 | 37.5 ± 0.48 | 6.58 ± 0.23 | 0.33 ± 0.06 |
| COc1cc(-c2cc(OC)c3ccccc3c2OC)c(OC)cc1-c1ccc(/C=N/NC(=O)c2cccc(C)c2)o1 [QW23, (E)-N’-((5-(4-(1,4-dimethoxynaphthalen-2-yl)-2,5-dimethoxyphenyl)furan-2-yl)methylene)-3-methylbenzohydrazide] | 0.84 ± 0.64 | 1.87 ± 0.33 | 2.26 ± 0.03 | 2.99 ± 0.25 |
| COc1cc(-c2cc(OC)c3ccccc3c2OC)c(OC)cc1-c1ccc(/C=N/NC(=O)c2ccc(-c3ccccc3)cc2)o1 [QW24, (E)-N’-((5-(4-(1,4-dimethoxynaphthalen-2-yl)-2,5-dimethoxyphenyl)furan-2-yl)methylene)-[1,1’-biphenyl]-4-carbohydrazide] | 4.96 ± 0.61 | 6 ± 0.1 | 4.39 ± 0.52 | 2.4 ± 0.07 |
